Source: patent US20240092758A1, “IMIDAZOLO INDAZOLE COMPOUNDS AS JAK INHIBITORS” (Theravance Biopharma R&D IP, LLC, priority 2021, published 2024)

Legend:
[1] = test system: IL-13 induced STAT6 phosphorylation in BEAS-2B human lung epithelial cells; assay: Cellular JAKI potency assay (BEAS-2B); type: cell-based; settings: Homo sapiens, BEAS-2B, BEAS-2B cells, read-out: BEAS2B pIC50 (converted)
Outline: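 AlphaLISA SureFire detection of Tyr641 pSTAT6 in lysates gave IC50s (4-parameter fit, expressed as pIC50). Cells: human BEAS-2B, exposed 1 h at 37 °C to compound dose series at 0.1% DMSO, then 30 min to IL-13 added at 80 ng/mL in HEPES-buffered HBSS with BSA.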

[2] = Pharmacokinetics in plasma and lung in mouse after oral aspiration administration; type: in vivo; settings: male CD1 mice; for Lung Tissue AUC(0-24) / AUC(0-t): 0.2 mg/mL, two 25 μL increments; for Lung Tissue:Plasma AUC ratio: lung AUC to plasma AUC; for AUC(0-t): mouse, inhaled or intranasal, 0.01 mg/mouse, plasma, read-out: Plasma AUC(0-24)
Protocol: Plasma and lung concentrations of test compounds were quantified and pharmacokinetic parameters were calculated in the following manner. Male CD1 mice from Charles River Laboratories were used in the pharmacokinetic studies. Test compounds were individually formulated in 20% propylene glycol in pH 4 citrate buffer at a concentration of 0.2 mg/mL. Test compounds were administered in two, 25 μL increments introduced into the trachea of each mouse by oral aspiration using a calibrated pipette once the animal was anesthetized using isoflurane. Blood samples were collected as terminal collections via cardiac puncture at 0.167, 1, 4, 8, and 24 hr post-dosing. Following […] with CO2, a direct cardiac puncture was performed while avoiding puncturing the lung and blood was immediately transferred into K2EDTA tubes and placed on wet ice. Blood samples were centrifuged (Eppendorf centrifuge, 5804R) for 4 minutes at approximately 12,000 rpm at 4° C. to collect plasma. Intact lungs were also excised from these mice using the same timepoints (0.167, 1, 4, 8, and 24 hr). Lungs were washed with sterile water to remove any blood residue and were patted dry, weighed, and homogenized in 0.1% formic acid in water at a dilution of 1:3 (lung:water, weight/volume). Plasma and lung concentrations of test compounds were determined by LC-MS/MS analysis against analytical standards constructed into a standard curve in the test matrix. The pharmacokinetic parameters of test compounds were determined by non-compartmental analysis. For concentrations below the limit of quantification, zero was used for mean calculations. Mean values were not reported if more than 50% of the samples were below the limit of quantification at a timepoint, or if more than 50% of a calculated pharmacokinetic parameter was not reportable. The area under the concentration-time curve extrapolated to infinity (AUC(0-inf)) was calculated as follows: AUC(0-inf)=AUC(0-t)+Clast/k, where AUC(0-t) is the area under the concentration-time curve from the time of dosing to the last measurable concentration calculated by the linear trapezoidal rule, Clast is the last measurable concentration, and k is the first order rate constant associated with the terminal elimination phase, estimated by linear regression of time versus log concentration. The lung-to-plasma AUC ratio was determined as the ratio of the lung AUC(0-inf) in μg*hr/g to the plasma AUC(0-inf) in μg*hr/mL.

JAK1 = JAK1 (Homo sapiens (Human), UniProt P23458); assay: Biochemical JAK kinase assay (LanthaScreen), JAK1; settings: for Ki: read-out: JAK1 pKi (converted)
Outline: (§1)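 LanthaScreen format: phospho-STAT1 (pTyr701) detected with 2 nM Tb antibody after 10 mM EDTA quench. Kinase step used Km-level ATP and 200 nM STAT1 peptide, 1 h at ambient after 1 h pre-incubation. Inhibition fitted to IC50, reported as pKi.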

JAK2 = JAK2 (Homo sapiens (Human), UniProt O60674); assay: Biochemical JAK kinase assay (LanthaScreen), JAK2; settings: for Ki: read-out: JAK2 pKi (converted)
Outline: as §1

TYK2 = TYK2 (Homo sapiens (Human), UniProt P29597); assay: Biochemical JAK kinase assay (LanthaScreen), Tyk2; settings: read-out: Tyk2 pKi (converted)
Protocol: (§2) A panel of four LanthaScreen JAK biochemical assays (JAK1, 2, 3 and Tyk2) were carried in a common kinase reaction buffer (50 mM HEPES, pH 7.5, 0.01% Brij-35, 10 mM MgCl2, and 1 mM EGTA). Recombinant GST-tagged JAK enzymes and a GFP-tagged STAT1 peptide substrate were obtained from Life Technologies.
(§3) Serially diluted compounds were pre-incubated with each of the four JAK enzymes and the substrate in white 384-well microplates (Corning) at ambient temperature for 1 h. ATP was subsequently added to initiate the kinase reactions in 10 μL total volume, with 1% DMSO. The final enzyme concentrations for JAK1, 2, 3 and Tyk2 are 4.2 nM, 0.1 nM, 1 nM, and 0.25 nM respectively; the corresponding Km ATP concentrations used are 25 μM, 3 μM, 1.6 μM, and 10 μM; while the substrate concentration is 200 nM for all four assays. Kinase reactions were allowed to proceed for 1 hour at ambient temperature before a 10 μL preparation of EDTA (10 mM final concentration) and Tb-anti-pSTAT1 (pTyr701) antibody (Life Technologies, 2 nM final concentration) in TR-FRET dilution buffer (Life Technologies) was added. The plates were allowed to incubate at ambient temperature for 1 h before being read on the EnVision reader (Perkin Elmer). Emission ratio signals (520 nm/495 nm) were recorded and utilized to calculate the percent inhibition values based on DMSO and background controls.
(§4) For dose-response analysis, percent inhibition data were plotted vs. compound concentrations, and IC50 values were determined from a 4-parameter robust fit model with the Prism software (GraphPad Software). Results were expressed as pIC50 (negative logarithm of IC50) and subsequently converted to pKi (negative logarithm of dissociation constant, Ki) using the Cheng-Prusoff equation.
(§5) Test compounds having a lower Ki value or higher pKi value in the four JAK assays show greater inhibition of JAK activity.

JAK3 = JAK3 (Homo sapiens (Human), UniProt P52333); assay: Biochemical JAK kinase assay (LanthaScreen), JAK3; settings: read-out: JAK3 pKi (converted)
Protocol: as §2, §3, §4, §5

Chain of JAK2 (O60674 whole entry): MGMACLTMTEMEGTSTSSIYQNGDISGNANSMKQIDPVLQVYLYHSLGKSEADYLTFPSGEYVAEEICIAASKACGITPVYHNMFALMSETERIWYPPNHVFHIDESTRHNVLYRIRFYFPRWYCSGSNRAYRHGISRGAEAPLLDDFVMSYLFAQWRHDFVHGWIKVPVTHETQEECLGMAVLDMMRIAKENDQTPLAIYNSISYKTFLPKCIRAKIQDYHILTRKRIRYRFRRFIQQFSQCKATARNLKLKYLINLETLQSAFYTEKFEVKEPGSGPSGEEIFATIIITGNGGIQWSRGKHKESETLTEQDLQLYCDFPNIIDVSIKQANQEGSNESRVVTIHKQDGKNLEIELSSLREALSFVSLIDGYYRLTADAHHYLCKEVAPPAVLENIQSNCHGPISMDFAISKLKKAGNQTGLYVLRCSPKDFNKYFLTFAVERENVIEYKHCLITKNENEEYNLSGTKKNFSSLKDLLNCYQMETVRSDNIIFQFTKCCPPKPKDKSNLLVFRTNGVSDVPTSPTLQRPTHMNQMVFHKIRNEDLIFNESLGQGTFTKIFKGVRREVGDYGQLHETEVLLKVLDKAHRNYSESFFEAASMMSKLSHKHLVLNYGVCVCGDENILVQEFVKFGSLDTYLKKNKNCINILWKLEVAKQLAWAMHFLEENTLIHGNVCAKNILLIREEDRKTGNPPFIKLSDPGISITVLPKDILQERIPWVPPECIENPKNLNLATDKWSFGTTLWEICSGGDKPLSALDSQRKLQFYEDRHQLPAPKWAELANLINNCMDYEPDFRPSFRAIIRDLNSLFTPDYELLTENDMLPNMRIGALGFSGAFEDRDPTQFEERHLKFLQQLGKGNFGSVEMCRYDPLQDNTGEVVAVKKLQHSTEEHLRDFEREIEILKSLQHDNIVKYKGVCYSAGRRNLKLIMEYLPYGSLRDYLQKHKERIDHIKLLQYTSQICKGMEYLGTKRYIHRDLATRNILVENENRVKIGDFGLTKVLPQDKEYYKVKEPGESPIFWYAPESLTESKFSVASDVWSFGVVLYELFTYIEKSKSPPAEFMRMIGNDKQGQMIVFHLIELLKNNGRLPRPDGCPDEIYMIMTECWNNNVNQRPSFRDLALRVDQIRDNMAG
Chain of TYK2 (P29597 whole entry): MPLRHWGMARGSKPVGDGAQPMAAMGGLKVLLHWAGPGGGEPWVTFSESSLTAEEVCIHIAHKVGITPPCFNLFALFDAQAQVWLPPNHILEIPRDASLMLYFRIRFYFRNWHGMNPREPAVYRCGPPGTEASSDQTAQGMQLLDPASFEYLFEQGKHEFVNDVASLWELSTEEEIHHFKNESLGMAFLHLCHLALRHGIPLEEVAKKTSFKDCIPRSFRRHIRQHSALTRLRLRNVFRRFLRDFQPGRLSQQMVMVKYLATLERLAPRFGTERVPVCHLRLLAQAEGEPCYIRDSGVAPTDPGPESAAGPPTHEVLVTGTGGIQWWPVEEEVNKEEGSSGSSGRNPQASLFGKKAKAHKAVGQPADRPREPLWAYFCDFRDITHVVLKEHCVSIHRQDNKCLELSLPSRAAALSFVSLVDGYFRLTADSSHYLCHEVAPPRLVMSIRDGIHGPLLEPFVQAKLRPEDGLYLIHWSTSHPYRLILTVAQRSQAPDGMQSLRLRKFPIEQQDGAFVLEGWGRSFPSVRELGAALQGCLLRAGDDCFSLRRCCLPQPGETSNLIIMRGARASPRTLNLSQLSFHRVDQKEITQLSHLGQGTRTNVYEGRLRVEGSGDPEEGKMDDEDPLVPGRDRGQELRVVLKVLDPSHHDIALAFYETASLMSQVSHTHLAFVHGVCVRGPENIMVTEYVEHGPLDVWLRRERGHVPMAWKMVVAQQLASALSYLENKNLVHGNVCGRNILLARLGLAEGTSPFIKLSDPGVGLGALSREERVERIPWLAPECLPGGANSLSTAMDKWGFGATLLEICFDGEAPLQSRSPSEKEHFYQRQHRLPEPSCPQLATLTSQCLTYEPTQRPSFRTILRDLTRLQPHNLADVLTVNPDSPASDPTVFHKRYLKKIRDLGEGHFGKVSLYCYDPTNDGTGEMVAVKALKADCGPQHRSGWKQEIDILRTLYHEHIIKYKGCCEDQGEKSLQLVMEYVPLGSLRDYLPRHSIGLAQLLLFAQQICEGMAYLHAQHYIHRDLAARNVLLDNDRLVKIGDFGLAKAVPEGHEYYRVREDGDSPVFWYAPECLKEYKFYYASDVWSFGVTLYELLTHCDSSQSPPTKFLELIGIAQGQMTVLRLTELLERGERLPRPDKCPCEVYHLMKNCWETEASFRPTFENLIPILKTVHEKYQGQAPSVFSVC
Chain of JAK1 (P23458 whole entry): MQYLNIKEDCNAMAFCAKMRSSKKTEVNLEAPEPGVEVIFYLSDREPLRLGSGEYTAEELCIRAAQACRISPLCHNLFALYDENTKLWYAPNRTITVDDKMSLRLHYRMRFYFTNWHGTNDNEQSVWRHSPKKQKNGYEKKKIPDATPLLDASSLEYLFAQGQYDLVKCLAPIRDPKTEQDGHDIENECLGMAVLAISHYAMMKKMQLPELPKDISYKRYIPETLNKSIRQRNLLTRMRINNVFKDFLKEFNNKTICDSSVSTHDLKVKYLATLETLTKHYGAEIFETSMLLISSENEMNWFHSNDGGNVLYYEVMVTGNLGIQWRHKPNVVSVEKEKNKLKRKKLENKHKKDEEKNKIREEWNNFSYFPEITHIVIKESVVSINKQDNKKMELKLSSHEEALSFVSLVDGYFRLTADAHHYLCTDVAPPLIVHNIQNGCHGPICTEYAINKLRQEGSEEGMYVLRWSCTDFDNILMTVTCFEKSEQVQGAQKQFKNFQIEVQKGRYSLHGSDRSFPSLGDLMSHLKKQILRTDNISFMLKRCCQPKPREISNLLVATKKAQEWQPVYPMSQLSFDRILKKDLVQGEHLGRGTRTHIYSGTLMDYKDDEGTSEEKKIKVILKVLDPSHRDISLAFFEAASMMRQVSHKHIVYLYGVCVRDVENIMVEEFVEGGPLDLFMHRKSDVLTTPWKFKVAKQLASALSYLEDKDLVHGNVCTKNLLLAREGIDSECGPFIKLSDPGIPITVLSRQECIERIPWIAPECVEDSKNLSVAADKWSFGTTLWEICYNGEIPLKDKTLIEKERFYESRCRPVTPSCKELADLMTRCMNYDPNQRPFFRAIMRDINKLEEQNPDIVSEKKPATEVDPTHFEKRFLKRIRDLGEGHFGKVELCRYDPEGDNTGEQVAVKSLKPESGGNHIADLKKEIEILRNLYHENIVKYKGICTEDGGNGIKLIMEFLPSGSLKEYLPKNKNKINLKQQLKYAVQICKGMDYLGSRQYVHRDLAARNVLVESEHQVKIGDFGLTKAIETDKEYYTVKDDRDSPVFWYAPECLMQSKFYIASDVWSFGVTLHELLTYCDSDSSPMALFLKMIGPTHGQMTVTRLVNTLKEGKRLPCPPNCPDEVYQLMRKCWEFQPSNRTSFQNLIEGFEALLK
Chain of JAK3 (P52333 whole entry): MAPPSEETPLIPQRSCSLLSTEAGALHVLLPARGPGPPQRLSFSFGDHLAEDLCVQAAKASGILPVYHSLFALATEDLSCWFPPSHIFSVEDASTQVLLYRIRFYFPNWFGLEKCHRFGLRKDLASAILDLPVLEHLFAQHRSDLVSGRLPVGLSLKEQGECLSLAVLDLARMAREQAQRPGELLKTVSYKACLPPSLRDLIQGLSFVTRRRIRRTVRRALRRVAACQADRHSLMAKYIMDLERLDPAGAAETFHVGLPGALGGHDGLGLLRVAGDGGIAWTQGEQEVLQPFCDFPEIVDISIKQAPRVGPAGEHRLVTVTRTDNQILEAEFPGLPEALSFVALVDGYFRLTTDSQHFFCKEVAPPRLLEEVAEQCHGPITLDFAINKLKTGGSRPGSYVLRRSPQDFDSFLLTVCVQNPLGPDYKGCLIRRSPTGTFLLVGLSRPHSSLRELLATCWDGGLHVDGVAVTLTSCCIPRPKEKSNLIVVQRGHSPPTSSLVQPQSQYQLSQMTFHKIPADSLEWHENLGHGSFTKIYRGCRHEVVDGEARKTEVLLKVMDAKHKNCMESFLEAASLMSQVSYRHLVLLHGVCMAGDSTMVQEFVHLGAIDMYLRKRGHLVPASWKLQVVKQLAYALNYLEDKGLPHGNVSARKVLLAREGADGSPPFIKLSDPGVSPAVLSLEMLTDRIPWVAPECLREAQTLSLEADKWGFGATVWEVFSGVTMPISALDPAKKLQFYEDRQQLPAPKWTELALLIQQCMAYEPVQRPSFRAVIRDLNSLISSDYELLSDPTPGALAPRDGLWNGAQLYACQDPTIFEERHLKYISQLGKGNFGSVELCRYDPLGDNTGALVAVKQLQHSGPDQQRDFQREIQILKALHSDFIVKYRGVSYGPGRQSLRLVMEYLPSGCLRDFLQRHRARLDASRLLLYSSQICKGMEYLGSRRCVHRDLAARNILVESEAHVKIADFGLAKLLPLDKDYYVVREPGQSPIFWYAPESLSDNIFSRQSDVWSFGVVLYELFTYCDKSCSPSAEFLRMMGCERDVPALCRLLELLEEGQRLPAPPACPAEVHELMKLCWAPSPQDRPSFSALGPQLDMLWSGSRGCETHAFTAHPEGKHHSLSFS

| Compound | IC50 [1] [nM] | Lung Tissue AUC(0-24) [2] | Lung Tissue:Plasma AUC ratio [2] | AUC(0-t) [2] [ng·h/mL] | Ki (JAK1) [nM] | JAK2 pKi (JAK2) | Ki (TYK2) [nM] | JAK1 pKi (JAK1) | Ki (JAK3) [nM] | Ki (JAK2) [nM] |
| --- | --- | --- | --- | --- | --- | --- | --- | --- | --- | --- |
| CCc1cc(O)ccc1-c1ccc2c(-c3nc(C4=CCN(C(C)CO)CC4)c[nH]3)n[nH]c2c1F (stereo not shown) [Compound 13, 3-ethyl-4-(7-fluoro-3-(4-(1-(1-hydroxypropan-2-yl)-1,2,3,6-tetrahydropyridin-4-yl)-1H-imidazol-2-yl)-1H-indazol-6-yl)phenol] | 3.16 to 10 | B (B denotes a value between 50 and 100) | C (C denotes a ratio between 100 and 200) | 500 to 1000 | 0.1 to 1 | – | – | – | – | – |
| CCc1cc(O)ccc1-c1ccc2c(-c3nc(C4=CCN(C)CC4)c[nH]3)n[nH]c2c1 [Example 19] | 3.16 to 10 | – | – | – | – | A (A represents a pKi value ≥10 (Ki≤0.1 nM)) | 0.1 to 1 | A (A represents a pKi value ≥10 (Ki≤0.1 nM)) | 0.1 to 1 | – |
| CCc1cc(O)ccc1-c1ccc2c(-c3nc(C4=CCN(C(C)C)CC4)c[nH]3)n[nH]c2c1 [Example 20] | 3.16 to 10 | – | – | – | – | A (A represents a pKi value ≥10 (Ki≤0.1 nM)) | 1 to 10 | A (A represents a pKi value ≥10 (Ki≤0.1 nM)) | 0.1 to 1 | – |
| CCc1cc(O)ccc1-c1ccc2c(-c3nc(C4=CCN(CC)CC4)c[nH]3)n[nH]c2c1F [Example 23] | 3.16 to 10 | – | – | – | 0.1 to 1 | – | 1 to 10 | – | 0.1 to 1 | 0.1 to 1 |
| CCCN1CC=C(c2c[nH]c(-c3n[nH]c4c(F)c(-c5ccc(O)cc5CC)ccc34)n2)CC1 [Example 24] | 3.16 to 10 | – | – | – | 0.1 to 1 | A (A represents a pKi value ≥10 (Ki≤0.1 nM)) | 1 to 10 | – | 0.1 to 1 | – |
| CCc1cc(O)ccc1-c1ccc2c(-c3nc(C4=CCN(CC(C)C)CC4)c[nH]3)n[nH]c2c1F [Example 25] | 10 to 31.6 | – | – | – | 0.1 to 1 | – | 10 to 100 | – | 0.1 to 1 | 0.1 to 1 |
| CCc1cc(O)ccc1-c1ccc2c(-c3nc(C4=CCCN(C)C4)c[nH]3)n[nH]c2c1 [Example 27] | 3.16 to 10 | – | – | – | – | A (A represents a pKi value ≥10 (Ki≤0.1 nM)) | 1 to 10 | A (A represents a pKi value ≥10 (Ki≤0.1 nM)) | 0.1 to 1 | – |
| CCc1cc(O)ccc1-c1ccc2c(-c3nc(C4=CCCN(C)C4)c[nH]3)n[nH]c2c1F [Example 29] | 3.16 to 10 | – | – | – | 0.1 to 1 | – | 1 to 10 | – | 0.1 to 1 | 0.1 to 1 |
| CCc1cc(O)ccc1-c1ccc2c(-c3nc(C4=CCCN(C(C)C)C4)c[nH]3)n[nH]c2c1F [Example 30] | 10 to 31.6 | – | – | – | 0.1 to 1 | – | 1 to 10 | – | 0.1 to 1 | 0.1 to 1 |
| CCc1cc(O)ccc1-c1ccc2c(-c3nc(C4=CCN(C[C@H](C)CO)CC4)c[nH]3)n[nH]c2c1F [Example 38] | 10 to 31.6 | C (C denotes a value between 9 and 50) | D (D denotes a ratio between 50 and 100) | < 500 | – | – | – | A (A represents a pKi value ≥10 (Ki≤0.1 nM)) | – | 0.1 to 1 |
| CCc1cc(O)ccc1-c1ccc2c(-c3nc(C4=CCN(CCC(C)(C)O)C4)c[nH]3)n[nH]c2c1 [Example 51] | 3.16 to 10 | C (C denotes a value between 9 and 50) | C (C denotes a ratio between 100 and 200) | < 500 | – | A (A represents a pKi value ≥10 (Ki≤0.1 nM)) | – | A (A represents a pKi value ≥10 (Ki≤0.1 nM)) | – | – |
| CCc1cc(O)ccc1-c1ccc2c(-c3nc(C4=CCN(C5CCNC5=O)C4)c[nH]3)n[nH]c2c1 (stereo not shown) [Example 94] | 10 to 31.6 | C (C denotes a value between 9 and 50) | E (E denotes a ratio between 30 and 50) | < 500 | 0.1 to 1 | A (A represents a pKi value ≥10 (Ki≤0.1 nM)) | – | – | – | – |
| CCc1cc(O)ccc1-c1ccc2c(-c3nc(C4=CCN(CCNS(C)(=O)=O)CC4)c[nH]3)n[nH]c2c1F [Example 106] | 10 to 31.6 | C (C denotes a value between 9 and 50) | C (C denotes a ratio between 100 and 200) | < 500 | 0.1 to 1 | A (A represents a pKi value ≥10 (Ki≤0.1 nM)) | – | – | – | – |
| CCc1cc(O)ccc1-c1ccc2c(-c3nc(C4=CCCN(C[C@@H]5COCCN5)C4)c[nH]3)n[nH]c2c1 [Example 193] | 31.6 to 100 | – | – | – | 0.1 to 1 | – | 1 to 10 | – | – | 0.1 to 1 |
| CCc1cc(O)ccc1-c1ccc2c(-c3nc(C4=CCCN(CCN5CCOCC5)C4)c[nH]3)n[nH]c2c1F [Example 198] | 10 to 31.6 | – | – | – | 0.1 to 1 | – | 1 to 10 | – | – | 0.1 to 1 |
| CCc1cc(O)ccc1-c1ccc2c(-c3nc(C4=CCN(C[C@@H]5COCCN5C)CC4)c[nH]3)n[nH]c2c1F [Example 210] | 10 to 31.6 | – | – | – | 0.1 to 1 | A (A represents a pKi value ≥10 (Ki≤0.1 nM)) | 1 to 10 | – | – | – |
| CCc1cc(O)ccc1-c1ccc2c(-c3nc(C4=CCCN(C5CCCNC5)C4)c[nH]3)n[nH]c2c1F (stereo not shown) [Example 216] | 100 to 316 | – | – | – | 1 to 10 | – | 1 to 10 | – | – | 0.1 to 1 |
| CCc1cc(O)ccc1-c1ccc2c(-c3nc(C4=C(C)CCNC4)c[nH]3)n[nH]c2c1F [Example 236] | 10 to 31.6 | B (B denotes a value between 50 and 100) | C (C denotes a ratio between 100 and 200) | 500 to 1000 | 0.1 to 1 | – | – | – | – | 0.1 to 1 |
| CCc1cc(O)ccc1-c1ccc2c(-c3nc(C4=C[C@H](COC)NC4)c[nH]3)n[nH]c2c1 [Example 241] | 3.16 to 10 | C (C denotes a value between 9 and 50) | D (D denotes a ratio between 50 and 100) | 500 to 1000 | 0.1 to 1 | – | – | – | – | 0.1 to 1 |
| CCc1cc(O)ccc1-c1ccc2c(-c3nc(C4=C[C@H](CC(=O)N(C)C)NC4)c[nH]3)n[nH]c2c1F [Example 255] | 10 to 31.6 | A (For the Lung Tissue AUC(0-24), A denotes a value between 100 and 200) | D (D denotes a ratio between 50 and 100) | 1000 to 1500 | – | A (A represents a pKi value ≥10 (Ki≤0.1 nM)) | – | A (A represents a pKi value ≥10 (Ki≤0.1 nM)) | – | – |
